Laboratory results: patent US11786519B2, “Apoptosis-inducing agents for the treatment of cancer and immune and autoimmune diseases” (AbbVie Inc., priority 2011, dated 2023)
pEC50, pKi: −log10 of the molar value.

Experiments:
[1] = target: mouse FL5.12 cells transfected with Bcl-xL (Homo sapiens, UniProt Q07817); experiment: FL5.12 cellular assay (cell viability, CellTiter-Glo); type: cell-based; conditions: IL-3-depleted, 3% FBS assay media, 24 hours; read-out: FL5.12 Bcl-xL, −IL3, EC50
Text: Individual determinations were the result of duplicate values.

[2] = target: Bcl-xL (Homo sapiens, UniProt Q07817); experiment: TR-FRET binding assay, competition with F-Bak for Bcl-xL; conditions: competition with F-Bak probe, GST-Bcl-xL
Sequence of Bcl-xL (Q07817 whole entry): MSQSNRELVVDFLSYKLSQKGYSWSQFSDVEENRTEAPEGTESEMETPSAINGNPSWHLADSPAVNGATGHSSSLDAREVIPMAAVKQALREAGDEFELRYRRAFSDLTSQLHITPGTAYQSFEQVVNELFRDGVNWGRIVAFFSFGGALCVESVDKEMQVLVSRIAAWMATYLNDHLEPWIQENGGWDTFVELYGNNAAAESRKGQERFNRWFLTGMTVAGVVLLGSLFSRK
Summary of the method: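 Serially diluted compounds ([…] as 2× starting concentration, 10% DMSO) compete with F-Bak probe for Bcl-xL, detected via Tb-labelled antibody TR-FRET after 2 h at room temperature. Excitation 340 nm, emission 520/495 nm; Ki derived by Wang's equation. Can be run with human or fetal bovine serum.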

[3] = Single dose pharmacokinetics, oral bioavailability; type: in vivo, Sprague-Dawley rats; conditions: Rat p.o. dose
Description: Compound and internal standard peak areas were determined using Scicx MacQuan software.

[4] = target: T1, Bcl-2 (Homo sapiens, UniProt P10415); experiment: TR-FRET binding assay, competition with F-Bak for Bcl-2; conditions: GST-Bcl-2, read-out: Ki, competition with F-Bak for the Bcl-2 binding site
T1 construct: made in house
T1 sequence (P10415 whole entry): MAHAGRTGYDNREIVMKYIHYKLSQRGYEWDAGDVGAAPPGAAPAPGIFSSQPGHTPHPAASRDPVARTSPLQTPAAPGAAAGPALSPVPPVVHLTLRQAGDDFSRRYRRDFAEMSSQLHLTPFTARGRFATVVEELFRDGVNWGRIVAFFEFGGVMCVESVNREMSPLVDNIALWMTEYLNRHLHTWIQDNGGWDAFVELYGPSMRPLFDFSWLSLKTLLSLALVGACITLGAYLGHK
Description: The samples are then mixed on a shaker for 1 minute then incubated for an additional 2 hours at room temperature. For each assay plate, a probe/antibody and protein/antibody/probe mixture were included as a negative and a positive control, respectively. Fluorescence was measured on the ENVISION plate reader (Perkin Elmer) using a 340/35 nm excitation filter and 520/525 (F-Bak) and 495/510 nm (Tb-labeled anti-his antibody) emission filters. Dissociation constants (Ki) were determined using Wang's equation (Wang, Z. X. An exact mathematical expression for describing competitive binding of two different ligands to a protein molecule. FEBS Lett. 1995 360:111-114). […] For comparison, the measurement of the competition of compounds of Formula (I) for other Bcl-2 family protein binding sites (e.g., Bcl-2) using the TR-FRET binding assay was accomplished by substituting GST-Bcl-xL in the TR-FRET assay with other GST-labeled protein, e.g., GST-Bcl-2, prepared in-house.

Sequence of mouse FL5.12 cells transfected with Bcl-xL (Q07817 whole entry, change not shown): as the sequence (Q07817 whole entry) above

SMILES | pEC50 [1] | pKi [2] | F (%), dose ([3]; 5 mpk) | F (%), dose ([3]; 1 mpk) | pKi [4]
COC12CC3CC(CC(Cn4ncc(-c5ccc(N6CCc7cccc(C(=O)Nc8nc9ccccc9s8)c7C6)nc5C(=O)O)c4C)(C3)C1)C2 [Example 16, 6-[8-(1,3-benzothiazol-2-ylcarbamoyl)-3,4-dihydroisoquinolin-2(1H)-yl]-3-(1-{[3-methoxytricyclo[3.3.1.1^3,7]dec-1-yl]methyl}-5-methyl-1H-pyrazol-4-yl)pyridine-2-carboxylic acid] | > 9.00 | > 10.00 | 20, 5 mpk % | – | –
Cc1c(-c2ccc(N3CCc4cccc(C(=O)Nc5nc6ccccc6s5)c4C3)nc2C(=O)O)cnn1CC12CC3CC(CC(C3)O1)C2 [Example 59, 6-[8-(1,3-benzothiazol-2-ylcarbamoyl)-3,4-dihydroisoquinolin-2(1H)-yl]-3-[5-methyl-1-(2-oxatricyclo[3.3.1.1^3,7]dec-1-ylmethyl)-1H-pyrazol-4-yl]pyridine-2-carboxylic acid] | 9.52 | > 10.00 | – | 31, 1 mpk % | 8.15
Cc1c(-c2ccc(N3CCc4cccc(C(=O)Nc5cn6ccccc6n5)c4C3)nc2C(=O)O)cnn1CC12CC3CC(CC(C3)C1)C2 [Example 49, 6-[8-(imidazo[1,2-a]pyridin-2-ylcarbamoyl)-3,4-dihydroisoquinolin-2(1H)-yl]-3-[5-methyl-1-(tricyclo[3.3.1.1^3,7]dec-1-ylmethyl)-1H-pyrazol-4-yl]pyridine-2-carboxylic acid] | 8.30 | > 10.00 | – | 15, 1 mpk % | –
Cc1c(-c2ccc(N3CCc4cccc(C(=O)Nc5nc6ccccc6s5)c4C3)nc2C(=O)O)cccc1N(C)C(=O)C12CC3CC(CC(C3)C1)C2 [Example 52, 6-[8-(1,3-benzothiazol-2-ylcarbamoyl)-3,4-dihydroisoquinolin-2(1H)-yl]-3-(2-methyl-3-{methyl[tricyclo[3.3.1.1^3,7]dec-1-ylcarbonyl]amino}phenyl)pyridine-2-carboxylic acid] | 8.52 | 9.70 | – | – | 6.98
